“And” between values parts separate entries of the source, which are not always exact repeats. Identical values can stand only once. Marks after values point to notes of the source that are not given here.
Legend:
[1] = tested on: young fly larvae (stage 1); test: Insecticidal activity in manure of hens fed Cyromazine products (Example 14); assay type: in vivo; settings: Cyromazine in feed 5 PPM
Description: (§1) Twenty four Lohman laying hens were placed in conventional layer cages (2 birds per cage) and divided into 6 experimental groups of 4 birds per group.
(§2) The hens were fed for three weeks with laying hens feed (17.5% protein, no AGP) supplemented with a Cyromazine product as summarized in Table 12.
After three weeks of feeding according to the experimental groups of example 3, manure was collected from each group of hens. The manure was frozen for 48 hours to destroy any insects present and then thawed.
For each experimental group, 5 cups containing 100 g thawed manure were prepared (70-75% moisture). Each cup represents a group replicate.
Thirty young fly larvae (stage 1) were placed in each cup and incubated in an insectarium for 10 days. After ten days the pupae/larvae/flies were counted. Analysis of variance was done using a One Way Anova test and the comparison of means was done with Tukey-Kramer test, significance level-α=0.05.

[2] = Cyromazine residue in eggs (Example 15); set-up: species or system Lohman laying hens; settings: female, Lohman, chicken, in vivo
From the text: as §1, §2
After four weeks of feeding according to the experimental groups of example 13, eggs were collected.
For each treatment 16 eggs were collected (4 eggs from each hen). The contents of the 4 eggs (without the shell) of each bird were pooled in one container marked to indicate the treatment. Each container was a sample. A total of 4 tests were performed for each treatment. The containers were packed in a temperature-controlled pack that was sent for Cyromazine analysis to Eurofines laboratory in Germany.
Samples are weighed and one or more samples is spiked with an internal standard.
Acetonitrile is added and the sample is vortexed. Petroleum ether is added and a liquid/liquid extraction is performed in a shaker followed by centrifugation. An aliquot of the acetonitrile phase is removed and reduced in volume to near dryness then resolved by adding water and methanol. The mixture is vortexed then filtered by membrane filter and analyzed—Liquid chromatographic determination with LC-MS/MS. Quantitation is via comparison with samples spiked with an internal standard.

In the case of `Nc1nc(N)nc(NC2CC2)n1` [NGNEC, Cyromazine], the “Dead larvae and pupas %” value [1] is reported as 0%, the Normal pupa % [1] is reported as 0^b % and the “Survival rate = (No of flies + normal pupas)/30*100” value [1] is reported as 0% and 0^b %. For the same molecule, the Flies % ([1]; 10 days) was 0^b %, the concentration at 4 weeks [2] was 88 ng/g and the “Cyromazine in eggs, % of Larvadex 0.5% group” value ([2]; 4 weeks) was 102%.

— patent US12178223B2, “Insect life cycle interruption agent(LCIA) formulations and their manufacture and use” (priority 2020, dated 2024)
